Source: PMC5218480 (PLoS ONE, 2017)

Test system: MV-4-11 cells
Test: Gene expression microarray analysis (Affymetrix PrimeView) and GSEA
Format: cell-based, human
Parameters: RFU PODN (11730768_x_at) / Fold change /veh PODN (11730768_x_at) / RFU LINC00158 (11744669_a_at) / Fold change /veh LINC00158 (11744669_a_at) / RFU DUSP10 (11751237_a_at) / Fold change /veh DUSP10 (11751237_a_at) / RFU ID3 (11757404_x_at) / Fold change /veh ID3 (11757404_x_at) / RFU PLEKHG5 (11737974_s_at) / Fold change /veh PLEKHG5 (11737974_s_at) / RFU LRRC4B (11730491_at) / Fold change /veh LRRC4B (11730491_at) / RFU GIMAP4 (11747438_a_at) / Fold change /veh GIMAP4 (11747438_a_at) / RFU KRT8 (11758183_x_at) / Fold change /veh KRT8 (11758183_x_at) / RFU CNN1 (11734310_a_at) / Fold change /veh CNN1 (11734310_a_at) / RFU VPS37D (11726825_at) / Fold change /veh VPS37D (11726825_at) / RFU C10orf10 (11716522_x_at) / Fold change /veh C10orf10 (11716522_x_at) / RFU KIR2DL2 /// KIR2DL4 /// KIR2DL5A /// KIR2DL5B /// KIR2DS1 /// KIR2DS2 /// KIR2DS3 /// KIR2DS4 /// KIR3DL3 /// KIR3DL3 /// KIR3DS1 (11738374_at) / Fold change /veh KIR2DL2 /// KIR2DL4 /// KIR2DL5A /// KIR2DL5B /// KIR2DS1 /// KIR2DS2 /// KIR2DS3 /// KIR2DS4 /// KIR3DL3 /// KIR3DL3 /// KIR3DS1 (11738374_at) / RFU C1QL1 (11718748_at) / Fold change /veh C1QL1 (11718748_at) / RFU TMPRSS4 (11747572_a_at) / Fold change /veh TMPRSS4 (11747572_a_at) / RFU HAMP (11756126_x_at) / Fold change /veh HAMP (11756126_x_at) / RFU RNFT2 (11725882_a_at) / Fold change /veh RNFT2 (11725882_a_at) / RFU NR4A2 (11747474_a_at) / Fold change /veh NR4A2 (11747474_a_at) / RFU ABCC12 (11746883_a_at) / Fold change /veh ABCC12 (11746883_a_at) / RFU TMEM136 (11760407_x_at) / Fold change /veh TMEM136 (11760407_x_at) / RFU CLDN22 /// WWC2 (11732394_at) / Fold change /veh CLDN22 /// WWC2 (11732394_at) / RFU HLA-DPB1 (11760878_x_at) / Fold change /veh HLA-DPB1 (11760878_x_at) / RFU SPINT1 (11716480_a_at) / Fold change /veh SPINT1 (11716480_a_at) / RFU GAP43 (11754022_s_at) / Fold change /veh GAP43 (11754022_s_at) / RFU A4GNT (11735810_at) / Fold change /veh A4GNT (11735810_at) / RFU PRB3 (11715151_x_at) / Fold change /veh PRB3 (11715151_x_at) / RFU TUBB4B (11761932_at) / Fold change /veh TUBB4B (11761932_at) / RFU CAPN14 (11732068_a_at) / Fold change /veh CAPN14 (11732068_a_at) / RFU TMCC2 (11721928_a_at) / Fold change /veh TMCC2 (11721928_a_at) / RFU IRGQ (11745062_a_at) / Fold change /veh IRGQ (11745062_a_at) / RFU FAM174B (11720279_a_at) / Fold change /veh FAM174B (11720279_a_at) / RFU TMPRSS4 (11748680_a_at) / Fold change /veh TMPRSS4 (11748680_a_at) / RFU FAM212B (11763350_a_at) / Fold change /veh FAM212B (11763350_a_at) / RFU PLEKHG5 (11743358_a_at) / Fold change /veh PLEKHG5 (11743358_a_at) / RFU ZSCAN30 (11745921_a_at) / Fold change /veh ZSCAN30 (11745921_a_at) / RFU CMKLR1 (11741424_a_at) / Fold change /veh CMKLR1 (11741424_a_at) / RFU LOC101060620 /// MAPK8IP1 (11723275_at) / Fold change /veh LOC101060620 /// MAPK8IP1 (11723275_at) / RFU SPTSSB (11747773_x_at) / Fold change /veh SPTSSB (11747773_x_at) / RFU PRSS12 (11739890_at) / Fold change /veh PRSS12 (11739890_at) / RFU BIN1 (11741810_x_at) / Fold change /veh BIN1 (11741810_x_at) / RFU WNT11 (11732464_a_at) / Fold change /veh WNT11 (11732464_a_at) / RFU C10orf10 (11716521_a_at) / Fold change /veh C10orf10 (11716521_a_at) / RFU C5orf56 (11738089_at) / Fold change /veh C5orf56 (11738089_at) / RFU CYB561 (11721691_x_at) / Fold change /veh CYB561 (11721691_x_at) / RFU ANKRD19P (11752326_a_at) / Fold change /veh ANKRD19P (11752326_a_at) / RFU OR2T12 /// OR2T33 /// OR2T8 (11738714_s_at) / Fold change /veh OR2T12 /// OR2T33 /// OR2T8 (11738714_s_at) / RFU VCAN (11748164_a_at) / Fold change /veh VCAN (11748164_a_at) / RFU JSRP1 (11732532_at) / Fold change /veh JSRP1 (11732532_at) / RFU KRTAP10-11 (11738290_x_at) / Fold change /veh KRTAP10-11 (11738290_x_at) / RFU MYO3A (11730013_a_at) / Fold change /veh MYO3A (11730013_a_at) / RFU EBF3 (11725865_a_at) / Fold change /veh EBF3 (11725865_a_at) / RFU CAMK2N1 (11719241_x_at) / Fold change /veh CAMK2N1 (11719241_x_at) / RFU C5orf56 (11738088_a_at) / Fold change /veh C5orf56 (11738088_a_at) / RFU OLFML3 (11715873_a_at) / Fold change /veh OLFML3 (11715873_a_at) / RFU LOC100653217 /// NTM (11731650_a_at) / Fold change /veh LOC100653217 /// NTM (11731650_a_at) / RFU MAPK11 (11762145_a_at) / Fold change /veh MAPK11 (11762145_a_at) / RFU FIZ1 (11724087_x_at) / Fold change /veh FIZ1 (11724087_x_at) / RFU OASL (11726364_x_at) / Fold change /veh OASL (11726364_x_at) / RFU SOX15 (11748057_x_at) / Fold change /veh SOX15 (11748057_x_at) / RFU CD79A (11719716_a_at) / Fold change /veh CD79A (11719716_a_at) / RFU HIST1H1D (11736915_at) / Fold change /veh HIST1H1D (11736915_at) / RFU CASKIN2 (11723855_a_at) / Fold change /veh CASKIN2 (11723855_a_at) / RFU LOC730098 (11760151_x_at) / Fold change /veh LOC730098 (11760151_x_at) / RFU OR4N2 (11742367_at) / Fold change /veh OR4N2 (11742367_at) / RFU PRRT2 (11749266_a_at) / Fold change /veh PRRT2 (11749266_a_at) / RFU SNX32 (11753110_a_at) / Fold change /veh SNX32 (11753110_a_at) / RFU CDHR5 (11726645_a_at) / Fold change /veh CDHR5 (11726645_a_at) / RFU RCAN1 (11760418_a_at) / Fold change /veh RCAN1 (11760418_a_at) / RFU FAM167A (11723789_a_at) / Fold change /veh FAM167A (11723789_a_at) / RFU FAM26E (11764081_at) / Fold change /veh FAM26E (11764081_at) / RFU ISYNA1 (11749810_s_at) / Fold change /veh ISYNA1 (11749810_s_at) / RFU ACY1 (11761880_at) / Fold change /veh ACY1 (11761880_at) / RFU 11764098_at / Fold change /veh 11764098_at / RFU SAMD14 (11745864_x_at) / Fold change /veh SAMD14 (11745864_x_at) / RFU NPB (11741838_a_at) / Fold change /veh NPB (11741838_a_at) / RFU TMPRSS6 (11731388_a_at) / Fold change /veh TMPRSS6 (11731388_a_at) / RFU KRTAP10-2 (11738614_at) / Fold change /veh KRTAP10-2 (11738614_at) / RFU ARHGAP8 /// PRR5-ARHGAP8 (11727945_x_at) / Fold change /veh ARHGAP8 /// PRR5-ARHGAP8 (11727945_x_at) / RFU KRTAP5-7 /// NADSYN1 (11734609_at) / Fold change /veh KRTAP5-7 /// NADSYN1 (11734609_at) / RFU RASL12 (11751679_a_at) / Fold change /veh RASL12 (11751679_a_at) / RFU CDKN2B (11736163_a_at) / Fold change /veh CDKN2B (11736163_a_at) / RFU PRF1 (11729649_at) / Fold change /veh PRF1 (11729649_at) / RFU, ZNF638 /// ZNF638-IT1 / Fold change vs veh, ZNF638 /// ZNF638-IT1 / RFU, PANK3 / Fold change vs veh, PANK3 / RFU, SH3YL1 / Fold change vs veh, SH3YL1 / RFU, ZEB2 / Fold change vs veh, ZEB2 / RFU, NRIP1 / Fold change vs veh, NRIP1 / RFU, PTTG1IP / Fold change vs veh, PTTG1IP / RFU, CAPN2 / Fold change vs veh, CAPN2 / RFU, MED14 / Fold change vs veh, MED14 / RFU, SNORA58 / Fold change vs veh, SNORA58 / RFU, C1orf63 / Fold change vs veh, C1orf63 / RFU, LRRFIP1 / Fold change vs veh, LRRFIP1 / RFU, NDUFAF7 / Fold change vs veh, NDUFAF7 / RFU, SLC12A2 / Fold change vs veh, SLC12A2 / RFU, IBTK / Fold change vs veh, IBTK / RFU, ESF1 / Fold change vs veh, ESF1 / Fold change vs veh, TMEM50B / RFU, TAOK1 / Fold change vs veh, TAOK1 / RFU, ACBD3 / Fold change vs veh, ACBD3 / RFU, TMA16 / Fold change vs veh, TMA16 / RFU, RWDD3 / Fold change vs veh, RWDD3 / RFU, BCAT1 / Fold change vs veh, BCAT1 / RFU, EDEM3 / Fold change vs veh, EDEM3 / RFU, TMEM33 / Fold change vs veh, TMEM33 / RFU, WDR75 / Fold change vs veh, WDR75 / RFU, AHCTF1 / Fold change vs veh, AHCTF1 / RFU, TFRC / Fold change vs veh, TFRC / RFU, ZDHHC17 / Fold change vs veh, ZDHHC17 / RFU, NOM1 / Fold change vs veh, NOM1 / RFU, ARL8B / Fold change vs veh, ARL8B / RFU, ZBTB11 / Fold change vs veh, ZBTB11 / RFU, TAMM41 / Fold change vs veh, TAMM41 / RFU, KIAA1704 /// LOC100996395 / Fold change vs veh, KIAA1704 /// LOC100996395 / RFU, ING1 / Fold change vs veh, ING1 / RFU, TRMT61B / Fold change vs veh, TRMT61B / RFU, FUBP3 / Fold change vs veh, FUBP3 / RFU, TP53 / Fold change vs veh, TP53 / RFU, TNKS2 / Fold change vs veh, TNKS2 / RFU, ZFP14 / Fold change vs veh, ZFP14 / RFU, ACTR2 / Fold change vs veh, ACTR2 / RFU, PPP3R1 / Fold change vs veh, PPP3R1 / RFU, PIK3R1 / Fold change vs veh, PIK3R1 / RFU, HNRNPA1 / Fold change vs veh, HNRNPA1 / RFU, RNF170 / Fold change vs veh, RNF170 / RFU, ZNF28 / Fold change vs veh, ZNF28 / RFU, RNGTT / Fold change vs veh, RNGTT / RFU, OGT / Fold change vs veh, OGT / RFU, BRD1 / Fold change vs veh, BRD1 / RFU, MARS / Fold change vs veh, MARS / RFU, ZNF655 / Fold change vs veh, ZNF655 / RFU, FAHD1 / Fold change vs veh, FAHD1 / RFU, BDP1 / Fold change vs veh, BDP1 / RFU, LRRCC1 / Fold change vs veh, LRRCC1 / RFU, ARID1A / Fold change vs veh, ARID1A / RFU, ZNF146 / Fold change vs veh, ZNF146 / RFU, ZNF330 / Fold change vs veh, ZNF330 / RFU, GPN3 / Fold change vs veh, GPN3 / RFU, C9orf123 / Fold change vs veh, C9orf123 / RFU, N4BP2L2 / Fold change vs veh, N4BP2L2 / RFU, ARFIP1 / Fold change vs veh, ARFIP1 / RFU, FAM179B / Fold change vs veh, FAM179B / RFU, BCL10 / Fold change vs veh, BCL10 / RFU, UHRF1BP1L / Fold change vs veh, UHRF1BP1L / RFU, BET1 / Fold change vs veh, BET1 / RFU, CNOT2 / Fold change vs veh, CNOT2 / RFU, ZNF268 / Fold change vs veh, ZNF268 / Fold change vs veh, ZNF507 / RFU, DGCR2 / Fold change vs veh, DGCR2 / RFU, WDSUB1 / Fold change vs veh, WDSUB1 / Fold change vs veh, HSP90B1 /// MIR3652 / RFU, ADSS / Fold change vs veh, ADSS / RFU, GK / Fold change vs veh, GK / RFU, ZNF148 / Fold change vs veh, ZNF148 / RFU, TAF9 / Fold change vs veh, TAF9 / RFU, SLC1A5 / Fold change vs veh, SLC1A5 / RFU, SLMO2 / Fold change vs veh, SLMO2 / RFU, ABCC4 / Fold change vs veh, ABCC4 / RFU, LOC101060439 /// RAP1B / Fold change vs veh, LOC101060439 /// RAP1B / RFU, RFX7 / Fold change vs veh, RFX7 / RFU, GTPBP10 / Fold change vs veh, GTPBP10 / RFU, CNEP1R1 / Fold change vs veh, CNEP1R1 / RFU, BIVM-ERCC5 /// ERCC5 / Fold change vs veh, BIVM-ERCC5 /// ERCC5 / RFU, ILF3 / Fold change vs veh, ILF3 / RFU 11762660_at / Fold change /veh 11762660_at / RFU VCAN (11757783_s_at) / Fold change /veh VCAN (11757783_s_at) / RFU DDX43 (11728927_at) / Fold change /veh DDX43 (11728927_at) / RFU KRT8 (11758188_x_at) / Fold change /veh KRT8 (11758188_x_at) / RFU NKD1 (11759106_at) / Fold change /veh NKD1 (11759106_at) / RFU SRD5A1 (11742802_a_at) / Fold change /veh SRD5A1 (11742802_a_at) / RFU TPSAB1 /// TPSB2 (11721975_s_at) / Fold change /veh TPSAB1 /// TPSB2 (11721975_s_at) / RFU GSTM3 (11746129_a_at) / Fold change /veh GSTM3 (11746129_a_at) / RFU IL23R (11737362_x_at) / Fold change /veh IL23R (11737362_x_at) / RFU TMEM51 (11727254_a_at) / Fold change /veh TMEM51 (11727254_a_at) / RFU PIWIL2 (11732686_x_at) / Fold change /veh PIWIL2 (11732686_x_at) / RFU ORM1 (11744905_x_at) / Fold change /veh ORM1 (11744905_x_at) / RFU CCDC152 (11743942_at) / Fold change /veh CCDC152 (11743942_at) / RFU ECM1 (11717891_a_at) / Fold change /veh ECM1 (11717891_a_at) / RFU IL23R (11748794_a_at) / Fold change /veh IL23R (11748794_a_at) / RFU TNFAIP8L3 (11732012_x_at) / Fold change /veh TNFAIP8L3 (11732012_x_at) / RFU MBOAT4 (11741988_at) / Fold change /veh MBOAT4 (11741988_at) / RFU 11764193_at / Fold change /veh 11764193_at / RFU TMEM53 (11763286_at) / Fold change /veh TMEM53 (11763286_at) / RFU MAGEB2 (11727129_at) / Fold change /veh MAGEB2 (11727129_at) / RFU TMEM200A (11744735_a_at) / Fold change /veh TMEM200A (11744735_a_at) / RFU CCDC152 (11751479_a_at) / Fold change /veh CCDC152 (11751479_a_at) / RFU FAM211A (11726209_a_at) / Fold change /veh FAM211A (11726209_a_at) / RFU RGS16 (11746705_a_at) / Fold change /veh RGS16 (11746705_a_at) / RFU VCAN (11755009_s_at) / Fold change /veh VCAN (11755009_s_at) / RFU RHOB (11743442_s_at) / Fold change /veh RHOB (11743442_s_at) / RFU RGS16 (11720943_a_at) / Fold change /veh RGS16 (11720943_a_at) / RFU RGS16 (11720944_at) / Fold change /veh RGS16 (11720944_at) / RFU, VPS4B / Fold change vs veh, VPS4B / RFU, CREB1 / Fold change vs veh, CREB1 / RFU, DNAJC13 / Fold change vs veh, DNAJC13 / RFU, GNAQ / Fold change vs veh, GNAQ / RFU, CDK5R1 / Fold change vs veh, CDK5R1 / RFU, ZRANB3 / Fold change vs veh, ZRANB3 / RFU, CUL4A / Fold change vs veh, CUL4A / RFU, CCNY / Fold change vs veh, CCNY / RFU, UFL1 / Fold change vs veh, UFL1 / RFU, COG3 / Fold change vs veh, COG3 / RFU, DIAPH2 / Fold change vs veh, DIAPH2 / RFU, SKA2 / Fold change vs veh, SKA2 / RFU, AFF3 / Fold change vs veh, AFF3 / RFU, LMF1 / Fold change vs veh, LMF1 / RFU, IPO11 / Fold change vs veh, IPO11 / RFU, DFFB / Fold change vs veh, DFFB / RFU, FOXP1 / Fold change vs veh, FOXP1 / RFU, CARD8 / Fold change vs veh, CARD8 / RFU, STRN3 / Fold change vs veh, STRN3 / RFU, ADK / Fold change vs veh, ADK / RFU, RASSF2 / Fold change vs veh, RASSF2 / RFU, WIPF1 / Fold change vs veh, WIPF1 / RFU, LARP1B / Fold change vs veh, LARP1B / RFU, RASA1 / Fold change vs veh, RASA1 / RFU, RB1 / Fold change vs veh, RB1 / RFU, PPFIA1 / Fold change vs veh, PPFIA1 / RFU, MAT2A / Fold change vs veh, MAT2A / RFU, CCT5 / Fold change vs veh, CCT5 / RFU, WDR92 / Fold change vs veh, WDR92 / RFU, CUX1 / Fold change vs veh, CUX1 / RFU, TTC7A / Fold change vs veh, TTC7A / RFU, TMEM135 / Fold change vs veh, TMEM135 / RFU, DEPTOR / Fold change vs veh, DEPTOR / RFU, CPM / Fold change vs veh, CPM / RFU, DNAJB6 / Fold change vs veh, DNAJB6 / RFU, CACNA2D3 / Fold change vs veh, CACNA2D3 / RFU, DTX4 / Fold change vs veh, DTX4 / RFU, TFCP2 / Fold change vs veh, TFCP2 / RFU, GMCL1 /// GMCL1P1 / Fold change vs veh, GMCL1 /// GMCL1P1 / RFU, AEBP2 / Fold change vs veh, AEBP2 / RFU, SNHG1 /// SNORD22 /// SNORD25 /// SNORD26 /// SNORD27 /// SNORD28 /// SNORD29 /// SNORD31 / Fold change vs veh, SNHG1 /// SNORD22 /// SNORD25 /// SNORD26 /// SNORD27 /// SNORD28 /// SNORD29 /// SNORD31 / Fold change (Aza/veh), C12orf56 (ProbeSet 11735607_a_at) / Fold change (ACY-1035/veh), C12orf56 (ProbeSet 11735607_a_at) / Fold change (Aza/veh), FGFR1OP (ProbeSet 11751329_s_at) / Fold change (ACY-1035/veh), FGFR1OP (ProbeSet 11751329_s_at) / Fold change (Aza/veh), VPS36 (ProbeSet 11739960_a_at) / Fold change (ACY-1035/veh), VPS36 (ProbeSet 11739960_a_at) / RFU SYPL1 (11715823_x_at) / Fold change /veh SYPL1 (11715823_x_at) / RFU IGFBP7 (11715501_s_at) / Fold change /veh IGFBP7 (11715501_s_at) / RFU REEP3 (11722064_at) / Fold change /veh REEP3 (11722064_at) / RFU IGLL1 (11728026_x_at) / Fold change /veh IGLL1 (11728026_x_at): dose or concentration left out as unconfirmed
Conditions: MV-4-11 cells, 48 hours

SMILES: Nc1ccc(-c2cccs2)cc1NC(=O)c1ccc2c(c1)cc(C1CC1)n2CCN1CCOCC1 [ACY-1035]
- Fold change /veh LOC100653217 /// NTM (11731650_a_at): 0.99
